Data taken from US8440595B2, “Fungicides” (priority 2007, dated 2013).

Columns and labels:
Septoria nodorum = assay: leaf disk assay, Septoria nodorum (wheat glume blotch), preventive; assay type: in vivo; conditions: for Efficacy (%): wheat leaf segments, four days after inoculation

Structure (SMILES)	melting point [°C]	Efficacy (%) (Septoria nodorum; Concentration 60 ppm)	Efficacy (%) (Septoria nodorum; Concentration 200 ppm)	fungicidal activity against Septoria nodorum compared with the compound from the state of the art (Septoria nodorum; both application rates (200 and 60 ppm))
CC#CC(C)(C)NC(=O)C(Oc1cc(Br)c2ncc(I)cc2c1)SC (stereo not drawn) [2(5), 2-(8-bromo-3-iodo-quinolinyl-6-oxy)-2-methylthio-N-(2-methylpent-3-yn-2-yl) acetamide]	161 to 162	80	100	substantially better fungicidal activity
CC#CC(C)(C)NC(=O)C(Oc1cc(Br)c2ncc(Br)cc2c1)SC (stereo not drawn) [2 (Table 23), reference compound]		0	0	
